Measured values: patent US20180296537A1, “METHODS AND COMPOSITIONS FOR DIAGNOSING, TREATING, AND MONITORING TREATMENT OF SHANK3 DEFICIENCY ASSOCIATED DISORDERS” (Novartis AG, priority 2015, published 2018)
Where a SMILES comes first, the peptide text is derived from it. The star is where a group is joined. Cbz = O=C(OCc1ccccc1)*

Tests used:
[1] = tested on: Shank3 knock-out mice; details: cited from earlier work
[2] = tested on: PMDS neurons; details: cited from earlier work
[3] = tested on: PMDS patients; details: pilot studies; cited from earlier work
[4] = tested on: CA1 pyramidal neurons; assay: Dendritic spine density in hippocampal organotypic slice cultures; format: cell-based, mouse
Experimental: Wilde type (C57B1/6) mice were housed in a temperature-controlled room and maintained on a 12 hr light/dark cycle. Food and water were available ad libitum and experiments were carried out in accordance with the local authorization guidelines for the care and use of laboratory animals. Slice cultures were established according to the procedure described by Stoppini and colleagues (Galimberti et al., 2006; Stoppini et al., 1991). […] For organotypic slice cultures, brains of P6-P9 transgenic mice were dissected in cold MEM (GIBCO) medium, and hippocampal coronal sections of 400 μm were obtained with a tissue chopper (McIlwain). Slices were selected, placed on Millicell (Millipore, PICM03050) and cultured in 6-well dishes at 35° C. and 5% CO2 in the presence of 1 ml of medium. The entire slice isolation procedure took about 30 min. The culture medium was exchanged every third day. Treatments were performed in fresh culture medium for the indicated time periods.
Brain slices were transfected with plasmids encoding shCont, and shShank3 using helios gene gun system (Bio-Rad Laboratories, #165-2431) as previously described (Proenca et al., 2013). Subsequently, slices were fixed, stained, mounted, and analyzed following the protocols described below in the immunohistochemistry and microscopy paragraphs.
Slices were fixed for 10 minutes in 4% PFA, washed in PBS and blocked for 4 hr at room temperature in 0.3% Triton X-100 20% Horse Serum/PBS (blocking solution). GFP primary antibody was incubated for 24 hr at 4° C. in the blocking solution. Afterwards, slices were washed in PBS, incubated for 2 hr in 0.3% Triton X-100/PBS with Alexa Fluor® 488 Donkey anti-chicken secondary antibody (Life technologies). Finally, slices were washed in PBS, incubated 10 minutes with DAPI (Life technologies) and mounted on glass slides using ProLong mountant (Life technologies).
High resolution images were acquired on an upright Zeiss LSM700 confocal microscope, using a Plan-Neofluar 100×/1.3 oil immersion objective. For the analysis of dendritic spine density, confocal 3D stacks were acquired in CA1 region for each experiment. To quantify spine density, a stretch of approximately 30 μm was selected on secondary dendrites originating at the branch point from the primary dendrite. Only secondary dendrites were considered to reduce variability. Dendritic length was measured using the ImageJ plugin, Simple Neurite tracer, and spine density manually counted using the Cell Counter plugin.
The above findings implicate CLK2 overexpression as a specific anomaly that is causative for attenuated Akt activity in neurons deficient for Shank3. Consequently, inhibiting CLK2 activity or directly activating Akt would restore neuronal impairments associated with Shank3 loss of function. First, a small-molecule Akt-activator, SC79, was tested for its ability to restore Akt phosphorylation (FIG. 5A). SC79 binds directly to Akt to facilitate an ‘open’ conformation of the protein that is accessible to upstream activating kinases (eg. PDK1). This obviates the need for PtdIns(3,4,5)P3 (PIP3) production and recruitment of Akt to the plasma membrane (Rodgers, Cell Metab. 11, 23-34, 2010). […] Decreased principal neuron dendritic spine density has frequently been observed in Shank3 loss of function models (Durand et al., 2007, Nature Genetics 39: 25-27; Peca et al., 2011, Nature 472: 437-442; Verpelli et al., 2011, The Journal of Biological Chemistry 286: 34839-34850). Knock-down of Shank3 in hippocampal organotypic slice cultures, via biolistic transfection of shRNA vectors, faithfully recapitulated this phenotype in CA1 pyramidal neurons, whereby a two-fold reduction in apical dendrite spine density resulted (FIG. 6A). […]

[5] = tested on: Akt; assay: Western blot of Akt phosphorylation in rat primary cortical neurons (Shank3 knock down vs control); format: cell-based; details: DIV 16
Source text: E18 primary rat cortical neurons were dissected, cultured and infected 6 days after plating (DIV6) with indicated lentiviruses at MOI 10, as previously described (Proenca et al., 2013). Lentiviruses were produced by calcium phosphate transfection of HEK293T cells with packaging plasmids (Life Technologies) and transfer plasmid in 10 cm dishes. Cells were transferred to fresh medium 6 hrs. post-transfection. Four days post-transfection, the cell medium was collected and pooled from several dishes, cleared of cellular debris by 0.45 μm filtration, and concentrated 100× by centrifugation at 19,000 g for 90 min in a Beckman Ultracentrifuge using a SW28/SW32 rotor. Pellets were suspended in PBS/0.5% BSA and viral titer was determined by ELISA quantification of viral p24 antigen (Zeptometrix Corp, USA). For shRNA plasmid generation, oligonucleotides were annealed and ligated into lentiviral transfer plasmid pLKO.1-GFP vector at the AgeI/EcoRI sites. The target sequences of shRNAs that target rat and mouse Shank3 (5′-3′) are: […] […] (SEQ ID NO: 2), and […] (SEQ ID NO: 3). The latter was previously reported (Verpelli et al., 2011). A luciferase-targeting sequence was used as an shRNA control: […] (SEQ ID NO: 4).
For immunoprecipitation (IP) of HA-tagged Akt, neurons were lysed in IP buffer (20 mM Tris-HCl pH 7.4, 3 mM EDTA, 3 mM EGTA, 150 mM NaCl, 0.5% NP-40, and protease/phosphatase inhibitor cocktails (Roche)). Lysates were cleared by centrifugation at 13,000 rpm for 10 min and lysates normalized for protein abundance were immunoprecipitated with rabbit HA-tag antibody for 1 h at 4° C. Immuno-complexes were then captured by incubation for an additional 1 hr with Protein A agarose beads (Roche). Beads were washed three times with IP buffer and bound proteins were eluted with 2×SDS-PAGE sample buffer, then boiled for 5 min. For IP and analysis of ubiquitinated Myc-Clk2, neurons were lysed in Ubiquitin IP buffer (20 mM Tris-HCl pH 7.4, 3 mM EDTA, 3 mM EGTA, 150 mM NaCl, 1% Triton X-100, protease/phosphatase inhibitor cocktails (Roche), 5 mM N-ethylmaleimide, and 3 mM iodoacetamide) containing 1% SDS. Lysates were boiled for 20 min to denature proteins and then centrifuged for 10 min at 13,000 rpm. Lysates were subsequently diluted to 0.1% SDS with Ubiquitin IP buffer and immunoprecipitated with Myc antibody for 1 h. Complexes were then captured by addition of Protein G agarose (Roche) and additional 1 h incubation. Beads were washed 3× and eluted with 2×SDS-PAGE sample buffer, then boiled for 5 min. Samples prepared for SDS-PAGE were then resolved on 4-12% Novex gels (Life Technologies), transferred to PVDF membranes, blocked in 5% low-fat milk in TBS/0.1% Tween-20, and incubated overnight with primary antibodies. After washing and 1 h incubation with secondary antibodies, proteins were visualized by Chemiluminescent detection (Amersham-GE Healthcare Life Sciences).
To determine whether Shank3 deficiency impacts the PI3K-Akt-mTOR signaling pathway (FIG. 1A, gray highlight), lentiviral-mediated delivery of shRNAs was used to knock-down Shank3 in rat primary cortical neuron cultures. Cultured rat primary cortical neurons were transduced with lentiviruses encoding control shRNA or Shank3-shRNA at six days in vitro (DIV 6) and treated with BDNF (50 ng/ml) for 15 or 30 min at 14-16 days in vitro (DIV 14-16). Cell lysates were prepared in RIPA buffer prior to resolution by SDS-PAGE and Western blotting.
Cortical neurons, transduced with shRNA-expressing lentiviruses on DIV 6, were treated with 50 ng/ml BDNF or okadaic acid (100 nM) on DIV 16 and cell lysates were resolved by SDS-PAGE, followed by Western blotting.

[6] = tested on: CLK2; assay: Western blot of CLK2 protein expression in primary neurons; format: cell-based, rat
Source text: E18 primary rat cortical neurons were dissected, cultured and infected 6 days after plating (DIV6) with indicated lentiviruses at MOI 10, as previously described (Proenca et al., 2013). Lentiviruses were produced by calcium phosphate transfection of HEK293T cells with packaging plasmids (Life Technologies) and transfer plasmid in 10 cm dishes. Cells were transferred to fresh medium 6 hrs. post-transfection. Four days post-transfection, the cell medium was collected and pooled from several dishes, cleared of cellular debris by 0.45 μm filtration, and concentrated 100× by centrifugation at 19,000 g for 90 min in a Beckman Ultracentrifuge using a SW28/SW32 rotor. Pellets were suspended in PBS/0.5% BSA and viral titer was determined by ELISA quantification of viral p24 antigen (Zeptometrix Corp, USA). For shRNA plasmid generation, oligonucleotides were annealed and ligated into lentiviral transfer plasmid pLKO.1-GFP vector at the AgeI/EcoRI sites. The target sequences of shRNAs that target rat and mouse Shank3 (5′-3′) are: […] (SEQ ID NO: 1), […] (SEQ ID NO: 2), and […] (SEQ ID NO: 3). The latter was previously reported (Verpelli et al., 2011). A luciferase-targeting sequence was used as an shRNA control: […] (SEQ ID NO: 4).
For immunoprecipitation (IP) of HA-tagged Akt, neurons were lysed in IP buffer (20 mM Tris-HCl pH 7.4, 3 mM EDTA, 3 mM EGTA, 150 mM NaCl, 0.5% NP-40, and protease/phosphatase inhibitor cocktails (Roche)). Lysates were cleared by centrifugation at 13,000 rpm for 10 min and lysates normalized for protein abundance were immunoprecipitated with rabbit HA-tag antibody for 1 h at 4° C. Immuno-complexes were then captured by incubation for an additional 1 hr with Protein A agarose beads (Roche). Beads were washed three times with IP buffer and bound proteins were eluted with 2×SDS-PAGE sample buffer, then boiled for 5 min. […]

IGF-1: insulin-like growth factor-1
synaptic and motor deficits [1]: alleviated synaptic and motor deficits in Shank3 knock-out mice | synaptic impairment [2]: alleviated | motor, cognitive and social impairments [3]: beneficial | dendritic spine density ([4]; Shank3 knockdown neurons, 1 μg/ml IGF-1 24 h, with or without 10 μM Akti, fixed DIV 14): restored normal dendritic spine density to Shank3 knockdown neurons, in an Akt-dependent manner

O=c1[nH]c2ccccc2n1C1CCN(Cc2ccc(-c3nc4cc5[nH]cnc5cc4nc3-c3ccccc3)cc2)CC1 [Akti]
effect of TG003 on spine density with Akt inhibitor ([4]; Shank3 knock down neurons, 10 μM Akti included in TG003 treatment): blocked | dendritic spine density ([4]; Thy1-mGFP transfected slice cultures, 10 μM Akti 24 h, fixed DIV14): sufficient to reduce dendritic spine density

C=C1[C@@H](O)[C@@H]2O[C@]3(CC[C@H](/C=C/[C@@H](C)[C@@H]4CC(C)=C[C@@]5(O[C@H](C[C@@](C)(O)C(=O)O)CC[C@H]5O)O4)O3)CC[C@H]2O[C@@H]1[C@@H](O)C[C@H](C)[C@H]1O[C@@]2(CCCCO2)CC[C@H]1C [okadaic acid]
increase of Akt T308 phosphorylation in Shank3 knock down neurons versus increase in control neurons ([5]; okadaic acid 100 nM): two-fold greater | Akt T308 phosphorylation ([5]; okadaic acid 100 nM, alone or with 50 ng/ml BDNF, control and Shank3 knock down neurons): enhanced Akt T308 phosphorylation in both control and Shank3 knock down neurons

CC(C)C[C@@H](C=O)NC(=O)[C@H](CC(C)C)NC(=O)[C@H](CC(C)C)NC(=O)OCc1ccccc1 [MG132] (Cbz-Leu-Leu-Leu-aldehyde)
CLK2 protein level ([6]; control cells, 2.5 or 20 μM MG132, 30 minutes): rapid increase of CLK2 in control cells

wild type B56β: Flag-tagged wild type B56β regulatory subunit of PP2A, expressed by lentiviral transduction
Akt phosphorylation ([5]; Shank3 knock down neurons, lentiviral co-expression of Flag-tagged B56β, 50 ng/ml BDNF): had no effect

insulin: insulin
motor, cognitive and social impairments [3]: beneficial

B1: BDNF: brain derived neurotrophic factor (protein, UniProt P23560 19-247, looked up)
Neurotrophic factor BDNF …: APMKEANIRGQGGLAYPGVRTHGTLESVNGPKAGSRGLTSLADTFEHVIEELLDEDQKVRPNEENNKDADLYTSRVMLSSQVPLEPPLLFLLEEYKNYLDAANMSMRVRRHSDPARRGELSVCDSISEWVTAADKKTAVDMSGGTVTVLEKVPVSKGQLKQYFYETKCNPMGYTKEGCRGIDKRHWNSQCRTTQSYVRALTMDSKKRIGWRFIRIDTSCVCTLTIKRGR
CLK2 protein level ([6]; Shank3 knock down neurons, BDNF treatment): elicited no significant further increase of CLK2 levels | CLK2 protein level ([6]; control neurons, BDNF 30 minutes): induced the accumulation of CLK2 in control neurons
